Where two headings read alike, the source gives them in different places.
What was measured:
Format in all cases: cell-based
[1] = tested on: C-33A (Cervical carcinoma); test: WST-1 cell viability analysis, C-33A; conditions: Homo sapiens, 72 hours, read-out: viability (survival rate) of C-33A cells
Description: (§1) The cell numbers were counted and reseed as 2×10^6 in cell culture plate/flask. Then, the culture medium were added to a volume of 10 ml, and the cells were cultured for 2-3 days. Then, the cells were suspended for loading into 96-well plates. The number of cells was 3000 and the volume of the culture medium was 100 μl each well.
(§2) Removing the original culture medium from 96-well plate. Then add 100 μl of commercially drug at a concentration of 10 μM per well. After 72 hours, add the diluted WST-1 reagent to the well with 100 μl/well, and the diluted WST-1 reagent was acquired from the dilution of 9:1 medium and WST-1 stock reagent. Finally, the total volume of each well was 200 μl/well. Culture the 96-well plate at 37° C. for 30 to 90 minutes. Detecting and calculate the survival rate of each cancer cells with an ELISA reader at OD450 nm.

[2] = tested on: pancreatic cancer cell line AsPC-1; test: WST-1 cell viability analysis, AsPC-1; conditions: Homo sapiens
Description: as §1, §2

[3] = tested on: Hep3B (hepatocellular carcinoma); test: WST-1 cell viability analysis, Hep3B; conditions: Homo sapiens
Description: as §1, §2

bladder cancer cells = test: Summary of cell viability, bladder cancer; conditions: 72 hours, summary over the bladder cancer cell lines, read-out: Inhibitory effect, bladder cancer
Description: as §1, §2
(§3) As a result in the experiments of the present invention.

[4] = tested on: breast cancer cell line MCF7; test: WST-1 cell viability analysis, MCF7; conditions: Homo sapiens, MCF7, 10 μM, 72 hours, read-out: viability (survival rate) of MCF7 cells
Description: as §1, §2

[5] = tested on: SAS (Tongue squamous cell carcinoma); test: WST-1 cell viability analysis, SAS
Description: as §1, §2

cancers cell lines = test: Inhibition test on all kinds of cancer cell lines (overall statement); conditions: several / various cancer cell lines, Table 18, FIG. 1
Description: as §1, §2, §3

[6] = WST-1 cell viability analysis, BEAS-2B; conditions: human
Text: (§4) Subculture the different types of cancer cell lines. The cancer cells includes lung cancer, gastric cancer, hepatic cancer, colon cancer, skin cancer, cervical cancer, prostate cancer, bladder cancer, breast cancer, leukemia, pancreatic cancer, ovarian cancer, tongue cancer, osteosarcoma, and renal cancer. The normal cells used in the control group included kidney cell (HEK293) and human bronchial epithelial cell line BEAS-2B (as shown in Table 1).
as §1, §2

[7] = tested on: bladder cancer cell line TSGH; test: WST-1 cell viability analysis, TSGH; conditions: 72 hours, read-out: viability (survival rate) of TSGH cells
Description: as §1, §2

[8] = tested on: ovarian cancer cell line NIH-OVCAR-3; test: WST-1 cell viability analysis, NIH-OVCAR-3; conditions: Homo sapiens, OVCAR-3, 10 μM, 72 hours, read-out: viability (survival rate) of NIH-OVCAR-3 cells
normal cells = test: Toxicity to normal cells (overall statement)
Text: as §4, §2

[9] = tested on: prostate cancer cell line PC-3; test: WST-1 cell viability analysis, PC-3; conditions: Homo sapiens
Description: as §1, §2

[10] = tested on: LoVo(Colorectal Adenocarcinoma); test: WST-1 cell viability analysis, LoVo; conditions: Homo sapiens
Description: as §1, §2

[11] = tested on: BCC (basal cell carcinoma); test: WST-1 cell viability analysis, BCC; conditions: 72 hours, read-out: viability (survival rate) of BCC cells
[12] = tested on: pancreatic cancer cell line BxPC-3; test: WST-1 cell viability analysis, BxPC-3; conditions: Homo sapiens, BXPC-3, 10 μM, 72 hours, read-out: viability (survival rate) of BxPC-3 cells
Description: as §1, §2

[13] = tested on: MKN-45 (Gastric Adenocarcinoma); test: WST-1 cell viability analysis, MKN-45; conditions: Homo sapiens, MKN-45, 10 μM, 72 hours, read-out: viability (survival rate) of MKN-45 cells
Description: as §1, §2

[14] = tested on: AGS (Gastric Adenocarcinoma); test: WST-1 cell viability analysis, AGS; conditions: Homo sapiens
Description: as §1, §2

**Q.** Which results are given for `CC1=C(C(=O)OC(C)C)C(c2cccc([N+](=O)[O-])c2)C(C(=O)OC2CN(C(c3ccccc3)c3ccccc3)C2)=C(N)N1` (centres unmarked) [Azelnidipine]?
**A.** viability at 10 µM ([1]; run 0524-10 min): 142%; viability at 10 µM ([1]; run 0526-10 min): 111%; viability at 10 µM ([1]; run 0529-10 min): 123%; viability at 10 µM ([1]; run 0531-10 min): 117%; viability at 10 µM ([2]; ASPC1, 10 μM, 72 hours, run 1-4-30 min, read-out: viability (survival rate) of AsPC-1 cells): 58.6%; viability at 10 µM ([2]; ASPC1, 10 μM, 72 hours, run 1-7-3-30 min, read-out: viability (survival rate) of AsPC-1 cells): 104%; viability at 10 µM ([2]; ASPC1, 10 μM, 72 hours, run 1-7-4-30 min, read-out: viability (survival rate) of AsPC-1 cells): 46.1%; viability at 10 µM ([2]; ASPC1, 10 μM, 72 hours, run 1-7-7-30 min, read-out: viability (survival rate) of AsPC-1 cells): 13.7%; viability at 10 µM ([2]; ASPC1, 72 h, 10 μM, average of 4 tests, read-out: Average viability of AsPC-1 cells): 55.6%; viability at 10 µM ([3]; 72 h, average of 4 tests, read-out: Average viability of Hep3B cells): 98.6%; viability at 10 µM ([3]; 72 hours, run 0612-20 min, read-out: viability (survival rate) of Hep3B cells): 114%; viability at 10 µM ([3]; 72 hours, run 0614-20 min, read-out: viability (survival rate) of Hep3B cells): 91.5%; viability at 10 µM ([3]; 72 hours, run 0616-20 min, read-out: viability (survival rate) of Hep3B cells): 97.9%; viability at 10 µM ([3]; 72 hours, run 0619-20 min, read-out: viability (survival rate) of Hep3B cells): 90.7%; viability at 10 µM (bladder cancer cells): 97.3%; viability at 10 µM ([4]; run 0612-10 min): 48.6%; viability at 10 µM ([4]; run 0614-10 min): 46.6%; viability at 10 µM ([4]; run 0616-10 min): 68.2%; viability at 10 µM ([4]; run 0619-10 min): 79.9%; viability at 10 µM ([5]; 72 h, average of 4 tests, read-out: Average viability of SAS cells): 76.8%; viability at 10 µM ([5]; 72 h, summary (SAS), read-out: Inhibitory effect, tongue cancer): 76.8%; viability at 10 µM ([5]; 72 hours, run 6-26-10 min, read-out: viability (survival rate) of SAS cells): 69.9%; viability at 10 µM ([5]; 72 hours, run 6-28-10 min, read-out: viability (survival rate) of SAS cells): 66%; viability at 10 µM ([5]; 72 hours, run 6-30-10 min, read-out: viability (survival rate) of SAS cells): 66.7%; viability at 10 µM ([5]; 72 hours, run 7-3-10 min, read-out: viability (survival rate) of SAS cells): 105%; inhibitory effect on cancer cell lines (in words) (cancers cell lines): significant inhibitory effect; viability at 72 h, 10 µM ([6]; BEAS-2B bronchial epithelial cells, run 0510-10 min, read-out: viability (survival rate) of BEAS-2B cells): 61.3%; viability at 72 h, 10 µM ([6]; BEAS-2B cells (normal bronchial epithelial cell line), average of 4 tests, read-out: average viability of BEAS-2B cells): 77.5%; viability at 72 h, 10 µM ([6]; BEAS-2B cells (normal bronchial epithelial cell line), run 0512-10 min, read-out: viability (survival rate) of BEAS-2B cells): 61.8%; viability at 72 h, 10 µM ([6]; BEAS-2B cells (normal bronchial epithelial cell line), run 0515-10 min, read-out: viability (survival rate) of BEAS-2B cells): 102%; viability at 72 h, 10 µM ([6]; BEAS-2B cells (normal bronchial epithelial cell line), run 0517-10 min, read-out: viability (survival rate) of BEAS-2B cells): 85.4%; viability at 10 µM ([7]; run 0510-10 min): 151%; viability at 10 µM ([7]; run 0512-10 min): 117%; viability at 10 µM ([7]; run 0515-10 min): 72%; viability at 10 µM ([7]; run 0517-10 min): 120%; viability at 10 µM ([8]; run 7-3-30 min): 106%; viability at 10 µM ([8]; run 7-4-30 min (fourth column)): 104%; viability at 10 µM ([8]; run 7-4-30 min (second column)): 99.1%; toxicity to normal cells (in words) (normal cells): no toxicity or had little toxicity; viability at 10 µM ([9]; PC-3, 10 μM, 72 hours, run PC-3-0524-10 min, read-out: viability (survival rate) of PC-3 cells): 122%; viability at 10 µM ([9]; PC-3, 10 μM, 72 hours, run PC-3-0526-10 min, read-out: viability (survival rate) of PC-3 cells): 149%; viability at 10 µM ([9]; PC-3, 10 μM, 72 hours, run PC-3-0529-10 min, read-out: viability (survival rate) of PC-3 cells): 110%; viability at 10 µM ([9]; PC-3, 10 μM, 72 hours, run PC-3-0531-10 min, read-out: viability (survival rate) of PC-3 cells): 102%; viability at 10 µM ([9]; PC-3, 72 h, 10 μM, average of 4 tests, read-out: Average viability of PC-3 cells): 121%; viability at 10 µM ([10]; 72 h, average of 4 tests, read-out: Average viability of LoVo cells): 59.9%; viability at 10 µM ([10]; 72 hours, run 0616-10 min, read-out: viability (survival rate) of LoVo cells): 49.6%; viability at 10 µM ([10]; 72 hours, run 0619-10 min, read-out: viability (survival rate) of LoVo cells): 67.2%; viability at 10 µM ([10]; 72 hours, run 0621-10 min, read-out: viability (survival rate) of LoVo cells): 62.3%; viability at 10 µM ([10]; 72 hours, run 0623-10 min, read-out: viability (survival rate) of LoVo cells): 60.3%; viability at 10 µM ([11]; run 0602-30 min): 77.7%; viability at 10 µM ([11]; run 0605-10 min): 127%; viability at 10 µM ([11]; run 0607-10 min): 95.7%; viability at 10 µM ([12]; run 3-4-30 min): 77.5%; viability at 10 µM ([12]; run 3-7-3-30 min): 79.9%; viability at 10 µM ([12]; run 3-7-4-30 min): 51%; viability at 10 µM ([12]; run 3-7-7-30 min): 50%; viability at 10 µM ([13]; run 0510-10 min): 174%; viability at 10 µM ([13]; run 0512-10 min): 184%; viability at 10 µM ([13]; run 0515-10 min): 68.5%; viability at 10 µM ([13]; run 0517-10 min): 130%; viability at 10 µM ([14]; 72 h, average of 4 tests, read-out: average viability of AGS cells): 90.2%; viability at 10 µM ([14]; 72 hours, run 0510-10 min, read-out: viability (survival rate) of AGS cells): 120%; viability at 10 µM ([14]; 72 hours, run 0512-10 min, read-out: viability (survival rate) of AGS cells): 124%; viability at 10 µM ([14]; 72 hours, run 0515-10 min, read-out: viability (survival rate) of AGS cells): 42.1%; viability at 10 µM ([14]; 72 hours, run 0517-10 min, read-out: viability (survival rate) of AGS cells): 74.3%

Reference: US20170312260A1 (LAUNX BIOMEDICAL CO., LTD., priority 2014, published 2017)
